Earlier results, collected in PubChem BioAssay AID1259409 (Chemical Carcinogenesis Research Information System (CCRIS), 2018).

Tested on: rodent chemically induced tumor inhibition, incidence and multiplicity
Assay: CCRIS tumor inhibitor studies
Conditions: Dose [Inhibitor]: 0, Route [Inhibitor]: ORAL, Promoter: NONE USED

## CC1=C(/C=C/C(C)=C/C=C/C(C)=C/C=C/C=C(C)/C=C/C=C(C)/C=C/C2=C(C)CCCC2(C)C)C(C)(C)CCC1
Carcinogen: N-ETHYL-N'-NITRO-N-NITROSOGUANIDINE, 4245-77-6, 0.005% PALM CAROTENE IN DRINKING WATER FOR 16 WK BEGINNING POST CARCINOGEN TREATMENT (STUDY DURATION: 20 WK), Species: MOUSE, Strain/Sex: C57BL/MALE, Target Tissue: Type of Lesion: DUODENUM: TUMOR, Dose [Carcinogen]: 100 MG/L IN DRINKING WATER FOR 4 WK
  tumour outcome (control, treated, inhibition, significance): 18/27 (67%), 8/16 (50%), 25%, not significant
Carcinogen: N-ETHYL-N'-NITRO-N-NITROSOGUANIDINE, 4245-77-6, 0.05% PALM CAROTENE IN DRINKING WATER FOR 16 WK BEGINNING POST CARCINOGEN TREATMENT (STUDY DURATION: 20 WK), Species: MOUSE, Strain/Sex: C57BL/MALE, Target Tissue: Type of Lesion: DUODENUM: TUMOR, Dose [Carcinogen]: 100 MG/L IN DRINKING WATER FOR 4 WK
  tumour outcome (control, treated, inhibition, significance): 18/27 (67%), 11/28 (39%), 42%, p<0.05
Carcinogen: N-METHYL-N'-NITRO-N-NITROSOGUANIDINE, 70-25-7, 0.4% IN DIET FOR 2 WK PRIOR TO FIRST CARCINOGEN DOSE FOLLOWED BY 0, 0.2% IN DIET FOR 25 WK (STUDY DURATION: 27 WK), 0.4% IN DIET FOR 2 WK PRIOR TO FIRST CARCINOGEN DOSE FOLLOWED BY 0, 0.2% IN DIET FOR 25 WK (STUDY DURATION: 27 WK), Species: RAT, Strain/Sex: WISTAR/MALE, Target Tissue: Type of Lesion: COLON: ADENOCARCINOMA, Dose [Carcinogen]: 0.15 ML OF A 13.4 MG/ML SOLUTION IN DISTILLED WATER 2/WK FOR 3 WK
  tumour outcome (control, treated, inhibition, significance): 34/36 (94%), 34/35 (97%), -3%, not calculated
Carcinogen: N-METHYL-N'-NITRO-N-NITROSOGUANIDINE, 70-25-7, 0.4% IN DIET FOR 2 WK PRIOR TO FIRST CARCINOGEN DOSE FOLLOWED BY 0, 0.2% IN DIET FOR 25 WK (STUDY DURATION: 27 WK), 0.4% IN DIET FOR 2 WK PRIOR TO FIRST CARCINOGEN DOSE FOLLOWED BY 0, 0.2% IN DIET FOR 25 WK (STUDY DURATION: 27 WK), Species: RAT, Strain/Sex: WISTAR/MALE, Target Tissue: Type of Lesion: COLON: ADENOMA, Dose [Carcinogen]: 0.15 ML OF A 13.4 MG/ML SOLUTION IN DISTILLED WATER 2/WK FOR 3 WK
  tumour outcome (control, treated, inhibition, significance): 17/36 (47%), 24/35 (69%), -47%, not calculated
Carcinogen: N-METHYL-N'-NITRO-N-NITROSOGUANIDINE, 70-25-7, 0.4% IN DIET FOR 2 WK PRIOR TO FIRST CARCINOGEN DOSE FOLLOWED BY 0, 0.2% IN DIET FOR 52 WK (STUDY DURATION: 54 WK), 0.4% IN DIET FOR 2 WK PRIOR TO FIRST CARCINOGEN DOSE FOLLOWED BY 0, 0.2% IN DIET FOR 52 WK (STUDY DURATION: 54 WK), Species: RAT, Strain/Sex: WISTAR/MALE, Target Tissue: Type of Lesion: GLANDULAR STOMACH: ADENOCARCINOMA, Dose [Carcinogen]: 80 UG/ML IN DRINKING WATER FOR 52 WK
  tumour outcome (control, treated, inhibition, significance): 7/36 (19%), 4/35 (11%), 42%, not calculated
Carcinogen: N-METHYL-N'-NITRO-N-NITROSOGUANIDINE, 70-25-7, 0.4% IN DIET FOR 2 WK PRIOR TO FIRST CARCINOGEN DOSE FOLLOWED BY 0, 0.2% IN DIET FOR 52 WK (STUDY DURATION: 54 WK), 0.4% IN DIET FOR 2 WK PRIOR TO FIRST CARCINOGEN DOSE FOLLOWED BY 0, 0.2% IN DIET FOR 52 WK (STUDY DURATION: 54 WK), Species: RAT, Strain/Sex: WISTAR/MALE, Target Tissue: Type of Lesion: GLANDULAR STOMACH: LEIOMYOSARCOMA, Dose [Carcinogen]: 80 UG/ML IN DRINKING WATER FOR 52 WK
  outcome: 0/36 (0%), 2/35 (6%), -600%, not calculated
Carcinogen: N-METHYL-N'-NITRO-N-NITROSOGUANIDINE, 70-25-7, 0.4% IN DIET FOR 2 WK PRIOR TO FIRST CARCINOGEN DOSE FOLLOWED BY 0, 0.2% IN DIET FOR 52 WK (STUDY DURATION: 54 WK), 0.4% IN DIET FOR 2 WK PRIOR TO FIRST CARCINOGEN DOSE FOLLOWED BY 0, 0.2% IN DIET FOR 52 WK (STUDY DURATION: 54 WK), Species: RAT, Strain/Sex: WISTAR/MALE, Target Tissue: Type of Lesion: SMALL INTESTINE: ADENOCARCINOMA, Dose [Carcinogen]: 80 UG/ML IN DRINKING WATER FOR 52 WK
  tumour outcome (control, treated, inhibition, significance): 10/36 (28%), 17/35 (49%), -75%, p= 0.12
Carcinogen: N-METHYL-N'-NITRO-N-NITROSOGUANIDINE, 70-25-7, 0.4% IN DIET FOR 2 WK PRIOR TO FIRST CARCINOGEN DOSE FOLLOWED BY 0, 0.2% IN DIET FOR 52 WK (STUDY DURATION: 54 WK), 0.4% IN DIET FOR 2 WK PRIOR TO FIRST CARCINOGEN DOSE FOLLOWED BY 0, 0.2% IN DIET FOR 52 WK (STUDY DURATION: 54 WK), Species: RAT, Strain/Sex: WISTAR/MALE, Target Tissue: Type of Lesion: SMALL INTESTINE: ADENOMA, Dose [Carcinogen]: 80 UG/ML IN DRINKING WATER FOR 52 WK
  tumour outcome (control, treated, inhibition, significance): 1/36 (3%), 0/35 (0%), 100%, not calculated
Carcinogen: N-METHYL-N'-NITRO-N-NITROSOGUANIDINE, 70-25-7, 0.4% IN DIET FOR 2 WK PRIOR TO FIRST CARCINOGEN DOSE FOLLOWED BY 0, 0.2% IN DIET FOR 52 WK (STUDY DURATION: 54 WK), 0.4% IN DIET FOR 2 WK PRIOR TO FIRST CARCINOGEN DOSE FOLLOWED BY 0, 0.2% IN DIET FOR 52 WK (STUDY DURATION: 54 WK), Species: RAT, Strain/Sex: WISTAR/MALE, Target Tissue: Type of Lesion: SMALL INTESTINE: ANGIOSARCOMA, Dose [Carcinogen]: 80 UG/ML IN DRINKING WATER FOR 52 WK
  tumour outcome (control, treated, inhibition, significance): 3/36 (8%), 6/35 (17%), -113%, not calculated
